# From patent publication US10688099B2, “Methods for modulating the amount of RNA transcripts” (PTC Therapeutics, Inc., priority 2013, dated 2020)
# Test system: RNA isoforms in PNN 1-46 SMA type I patient-derived fibroblasts
# Test: RNA Abundance Modulation (RNA isoform abundance, iFPM, HiSeq RNA sequencing)
# Assay type: cell-based, human
# Conditions: 3 μM
# Protocol: Cells from a cell line of interest are cultured in conditions sufficient to yield the number of cells capable of generating enough RNA for subsequent sequencing steps. Cells from the tested cell line are contacted with a compound described herein.
# To culture said cells, they are seeded, at appropriate concentrations in a volume of media in a cell culture container and incubated for 4, 5, 6, 7, 8, 9, 10, or more hours. A concentrated solution of compound in a vehicle (e.g., DMSO) is then added in sufficient volume to result in the intended final concentration of the compound, for example 100 nM, 500 nM, 1 μM, 5 μM, 10 μM, 15 μM, 20 μM, or more. The cells may also be treated with vehicle alone, as a control. A number of replicates of each concentration or control may be made (e.g., 2 replicates). The cells are then incubated at a constant temperature appropriate for cell culture of the particular cell line (e.g., 37° C.) for 6, 12, 18, 24, 48, or more hours. After incubation, the growth medium is removed and the cells are washed with the appropriate buffer (e.g., PBS). Cells are then removed from adherence to the cell culture container by treatment with a solution containing trypsin, and the trypsin subsequently quenched with the appropriate volume of buffer (e.g., DMEM-FBS). The cells are then pelleted with gentle centrifugation (e.g., ≤90×g centrifugal force) and resuspended in a buffer to lyse the cells for extraction of RNA. The cell lysates may then be frozen (e.g., at −80° C.) or, alternately, may immediately be used in a procedure to purify the RNA (e.g. by use of the RNEASY PLUS® minikit). The RNA from cell lysates is eluted in the appropriate volume of buffer (e.g., RNEASE-FREE H2O®). The resulting purified RNA may then be sequenced (e.g., using RNASeq) or analyzed using a human exon array (e.g., by GENECHIP® human exon array) to determine changes in the RNA levels in those cells treated with compound compared to those cells treated only with DMSO. The purified RNA may also be quantified by other methods known in the art.
# Using the RNA data obtained from sequencing, exon array, or other methods, a statistical analysis can reveal changes in the RNA levels of compound-treated compared with control. For example, t-test p-values may be calculated for the data obtained through sequencing and exon array methods in order to compare compound-treated cells to those treated with the DMSO control. […] Analysis of the sequencing and exon array data may then also yield predictions about the cause of the aberrant amount of an RNA transcript in the cells (e.g., perturbation of RNA splicing, RNA transcription, or RNA stability). These predictions may be further confirmed by methods known in the art. For example, RT-PCR and RT-qPCR may be used to confirm the change in amount of RNA transcripts for one or more particular transcripts of interest.
# Following the methods described above in Example 1, PNN 1-46 SMA type I patient-derived fibroblasts were treated with 300 nM or 3 μM Compounds 774 and 808 in 0.5% DMSO.
# 700,000 cells were seeded in 10 mL of medium (DMEM plus 10% FBS) in a T-75 flask. Cells were allowed to attach for at least 4 hrs, after which 50 μL of a 200× compound solution (100% DMSO) was added to each well, and the plate was incubated at 37° C. for 24 hrs.
# At the end of the incubation period, the supernatant was removed and the cells where washed with PBS. TrypLE (Invitrogen) express solution was added (e.g. 1.5 mL per one T75 flask). The flasks were incubated for 3 to 5 min at 37° C. The trypsin was then quenched, e.g., by adding 10 mL DMEM-FBS.
# Next, the cells were pelleted using gentle centrifugation without exceeding 90×g centrifugal force. The supernatant was removed and the cell pellet was re-suspended in 600 μL RLT buffer (the RLT buffer was supplemented with beta-mercaptoethanol according to the RNeasy protocol manual) by pipetting up and down until the pellet was completely dissolved […]
structure (smiles),measurement,setting,value
CCc1nc(C)cn2nc(-c3cc(=O)n4cc(C5CCN(C)CC5)cc(C)c4n3)cc12 [Compound 774],L2FC (x + 1),TBC1D15 NR_027449,−2.621
same,L2abs (Cpd-DMSO),TBC1D15 NR_027449,6.94
same,abs (Cpd-DMSO),TBC1D15 NR_027449,123 iFPM
same,amp FC (x + 1),TBC1D15 NR_027449,6.15
same,ave Cpd,TBC1D15 NR_027449,23 iFPM
same,FC (x + 1),TEP1 AB209669,1.0000
same,L2FC (x + 1),TEP1 AB209669,0.000
same,L2abs (Cpd-DMSO),TEP1 AB209669,0
same,abs (Cpd-DMSO),TEP1 AB209669,0 iFPM
same,amp FC (x + 1),TEP1 AB209669,1.00
same,ave Cpd,TEP1 AB209669,0 iFPM
same,FC (x + 1),TEP1 AK303307,1.3304
same,L2FC (x + 1),TEP1 AK303307,0.412
same,L2abs (Cpd-DMSO),TEP1 AK303307,1.91
same,abs (Cpd-DMSO),TEP1 AK303307,4 iFPM
same,amp FC (x + 1),TEP1 AK303307,1.33
same,ave Cpd,TEP1 AK303307,14 iFPM
same,FC (x + 1),TEP1 BC143812,0.8125
same,L2FC (x + 1),TEP1 BC143812,−0.300
same,L2abs (Cpd-DMSO),TEP1 BC143812,4.99
same,abs (Cpd-DMSO),TEP1 BC143812,32 iFPM
same,amp FC (x + 1),TEP1 BC143812,1.23
same,ave Cpd,TEP1 BC143812,137 iFPM
same,FC (x + 1),TEP1 BC143815,0.0138
same,L2FC (x + 1),TEP1 BC143815,−6.184
same,L2abs (Cpd-DMSO),TEP1 BC143815,6.16
same,abs (Cpd-DMSO),TEP1 BC143815,72 iFPM
same,amp FC (x + 1),TEP1 BC143815,72.71
same,ave Cpd,TEP1 BC143815,0 iFPM
same,FC (x + 1),TEP1 BX640983,1.1188
same,L2FC (x + 1),TEP1 BX640983,0.162
same,L2abs (Cpd-DMSO),TEP1 BX640983,0.61
same,abs (Cpd-DMSO),TEP1 BX640983,2 iFPM
same,amp FC (x + 1),TEP1 BX640983,1.12
same,ave Cpd,TEP1 BX640983,13 iFPM
same,FC (x + 1),TEP1 NM_007110,1.0236
same,L2FC (x + 1),TEP1 NM_007110,0.034
same,L2abs (Cpd-DMSO),TEP1 NM_007110,3.20
same,abs (Cpd-DMSO),TEP1 NM_007110,9 iFPM
same,amp FC (x + 1),TEP1 NM_007110,1.02
same,ave Cpd,TEP1 NM_007110,397 iFPM
same,FC (x + 1),TFCP2 AK308087,0.8370
same,L2FC (x + 1),TFCP2 AK308087,−0.257
same,L2abs (Cpd-DMSO),TFCP2 AK308087,4.27
same,abs (Cpd-DMSO),TFCP2 AK308087,19 iFPM
same,amp FC (x + 1),TFCP2 AK308087,1.19
same,ave Cpd,TFCP2 AK308087,98 iFPM
same,FC (x + 1),TFCP2 NM_005653,0.8324
same,L2FC (x + 1),TFCP2 NM_005653,−0.265
same,L2abs (Cpd-DMSO),TFCP2 NM_005653,7.35
same,abs (Cpd-DMSO),TFCP2 NM_005653,163 iFPM
same,amp FC (x + 1),TFCP2 NM_005653,1.20
same,ave Cpd,TFCP2 NM_005653,808 iFPM
same,FC (x + 1),TFCP2 NM_001173452,4.0384
same,L2FC (x + 1),TFCP2 NM_001173452,2.014
same,L2abs (Cpd-DMSO),TFCP2 NM_001173452,7.49
same,abs (Cpd-DMSO),TFCP2 NM_001173452,180 iFPM
same,amp FC (x + 1),TFCP2 NM_001173452,4.04
same,ave Cpd,TFCP2 NM_001173452,239 iFPM
same,FC (x + 1),TFCP2 NM_001173453,0.0531
same,L2FC (x + 1),TFCP2 NM_001173453,−4.236
same,L2abs (Cpd-DMSO),TFCP2 NM_001173453,4.16
same,abs (Cpd-DMSO),TFCP2 NM_001173453,18 iFPM
same,amp FC (x + 1),TFCP2 NM_001173453,18.84
same,ave Cpd,TFCP2 NM_001173453,0 iFPM
same,FC (x + 1),TGFBRAP1 AK021697,0.2793
same,L2FC (x + 1),TGFBRAP1 AK021697,−1.840
same,L2abs (Cpd-DMSO),TGFBRAP1 AK021697,4.66
same,abs (Cpd-DMSO),TGFBRAP1 AK021697,25 iFPM
same,amp FC (x + 1),TGFBRAP1 AK021697,3.58
same,ave Cpd,TGFBRAP1 AK021697,9 iFPM
same,FC (x + 1),TGFBRAP1 NM_004257,0.0064
same,L2FC (x + 1),TGFBRAP1 NM_004257,−7.294
same,L2abs (Cpd-DMSO),TGFBRAP1 NM_004257,7.29
same,abs (Cpd-DMSO),TGFBRAP1 NM_004257,156 iFPM
